Source: PubChem BioAssay (NCI)
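Tested at 5 concentrations; 48 h exposure; 96-well plates; endpoints linearly interpolated, else capped at highest concentration. TGI: total growth inhibition.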

How the values were obtained:
Assay in all cases: growth of human tumour cells (NCI), 48 h
SW-620 colon = system: SW-620 colon
A549 NSCLC = system: A549 NSCLC
OVCAR-8 ovarian = system: OVCAR-8 ovarian
SF-539 CNS = system: SF-539 CNS
UO-31 renal = system: UO-31 renal
SNB-19 CNS = system: SNB-19 CNS
CCRF-CEM leukemia = system: CCRF-CEM leukemia
SK-MEL-28 melanoma = system: SK-MEL-28 melanoma
OVCAR-3 ovarian = system: OVCAR-3 ovarian
SF-295 CNS = system: SF-295 CNS
SNB-75 CNS = system: SNB-75 CNS
SR leukemia = system: SR leukemia
HT29 colon = system: HT29 colon
NCI/ADR-RES ovarian = system: NCI/ADR-RES ovarian
HCC-2998 colon = system: HCC-2998 colon
NCI-H226 lung = system: NCI-H226 lung
T-47D breast = system: T-47D breast
MDA-MB-435 = system: MDA-MB-435
SK-MEL-5 melanoma = system: SK-MEL-5 melanoma
MDA-MB-231 breast = system: MDA-MB-231 breast
TK-10 renal = system: TK-10 renal
PC-3 prostate = system: PC-3 prostate
UACC-62 melanoma = system: UACC-62 melanoma
MCF7 breast = system: MCF7 breast
COLO 205 colon = system: COLO 205 colon
IGROV1 ovarian = system: IGROV1 ovarian
RPMI-8226 leukemia = system: RPMI-8226 leukemia
ACHN renal = system: ACHN renal
DU-145 prostate = system: DU-145 prostate
NCI-H460 lung = system: NCI-H460 lung
OVCAR-5 ovarian = system: OVCAR-5 ovarian
HOP-92 NSCLC = system: HOP-92 NSCLC
SF-268 CNS = system: SF-268 CNS
SK-MEL-2 melanoma = system: SK-MEL-2 melanoma
SN12C renal = system: SN12C renal
RXF 393 renal = system: RXF 393 renal
BT-549 breast = system: BT-549 breast
UACC-257 melanoma = system: UACC-257 melanoma
EKVX NSCLC = system: EKVX NSCLC
CAKI-1 renal = system: CAKI-1 renal
MDA-N = system: MDA-N
SK-OV-3 ovarian = system: SK-OV-3 ovarian
MOLT-4 leukemia = system: MOLT-4 leukemia
786-0 renal = system: 786-0 renal
M14 melanoma = system: M14 melanoma
HOP-62 NSCLC = system: HOP-62 NSCLC
KM12 colon = system: KM12 colon
HCT-15 colon = system: HCT-15 colon
HCT-116 colon = system: HCT-116 colon
NCI-H522 lung = system: NCI-H522 lung
NCI-H23 lung = system: NCI-H23 lung
LOX IMVI melanoma = system: LOX IMVI melanoma
HS 578T breast = system: HS 578T breast
HL-60(TB) leukemia = system: HL-60(TB) leukemia
U251 CNS = system: U251 CNS
OVCAR-4 ovarian = system: OVCAR-4 ovarian
K-562 leukemia = system: K-562 leukemia
MALME-3M melanoma = system: MALME-3M melanoma
A498 renal = system: A498 renal

Measured: TGI

CNC1C(O)C(NC)C2OC3(O)C(=O)CC(C)OC3OC2C1O (configuration not stated)
not listed: MALME-3M melanoma | A498 renal
> 100 µM: all other assays above

C=C(C)CNC(=S)N(N)c1ccc(OC)cc1
56.8 µM: HCT-15 colon
67.7 µM: UACC-62 melanoma
not listed: SK-MEL-2 melanoma | CAKI-1 renal | A498 renal
> 100 µM: all other assays above

CCOC(=O)CC(=O)C(=O)NNC1=NCCN1
not listed: CAKI-1 renal | A498 renal
> 100 µM: all other assays above

C=C1[C@H](OC(=O)C(C)C)[C@@H](OC(C)=O)[C@@H](OC(C)=O)C(C)(C)[C@@H]2O[C@H]2[C@@H](C)C(=O)[C@@]2(OC(C)=O)C[C@@](C)(OC(C)=O)[C@H](OC(C)=O)[C@@H]2[C@H]1OC(C)=O
not listed: SK-MEL-28 melanoma | SNB-75 CNS | RXF 393 renal
> 100 µM: all other assays above

Sc1ccc2ccccc2c1CNCc1ccccc1
44.2 µM: SNB-75 CNS
98.1 µM: NCI/ADR-RES ovarian
26 µM: RXF 393 renal
27.6 µM: M14 melanoma
31.9 µM: RPMI-8226 leukemia
45.5 µM: SK-MEL-2 melanoma
30.8 µM: KM12 colon | U251 CNS
18.6 µM: LOX IMVI melanoma
28.2 µM: COLO 205 colon
37 µM: 786-0 renal
6.59 µM: MOLT-4 leukemia
18.3 µM: NCI-H522 lung
78.5 µM: MALME-3M melanoma
67.2 µM: HS 578T breast
69.3 µM: DU-145 prostate
6.97 µM: IGROV1 ovarian
29.3 µM: SF-539 CNS
43.8 µM: CAKI-1 renal
26.9 µM: UO-31 renal | HL-60(TB) leukemia
25.7 µM: SN12C renal
43.9 µM: MDA-MB-231 breast
28.6 µM: UACC-62 melanoma
69.7 µM: SK-MEL-28 melanoma
78.3 µM: EKVX NSCLC
34 µM: OVCAR-5 ovarian
12.3 µM: NCI-H226 lung
25.3 µM: SK-MEL-5 melanoma
34.9 µM: HOP-62 NSCLC
30.3 µM: SF-268 CNS
57.9 µM: ACHN renal
65.8 µM: OVCAR-8 ovarian
31.4 µM: OVCAR-3 ovarian
37.6 µM: MDA-N
15.4 µM: SR leukemia
47.3 µM: SF-295 CNS
54.1 µM: CCRF-CEM leukemia
33.4 µM: HCT-116 colon
48.7 µM: BT-549 breast
39 µM: K-562 leukemia
88.6 µM: HCT-15 colon
29.9 µM: MDA-MB-435
59.7 µM: NCI-H23 lung
41.1 µM: SK-OV-3 ovarian
40.6 µM: OVCAR-4 ovarian
95.5 µM: A498 renal
not listed: HOP-92 NSCLC
> 100 µM: all other assays above

CC(C)OC(=O)Nc1cccc(Cl)c1
not listed: NCI-H522 lung | MALME-3M melanoma | A498 renal
> 100 µM: all other assays above

NC(=O)/C(=C\c1ccncc1)c1cccc2ccccc12
95.2 µM: NCI-H226 lung
8.49 µM: UACC-257 melanoma
not listed: HCC-2998 colon | A498 renal
> 100 µM: all other assays above
